Measured values from patent publication US20190224166A1, “Compositions and Methods for Treating Muscle Loss” (Augusta University Research Institute, Inc., priority 2018, published 2019).

Test system: quadriceps muscle
Assay: Proteomic analysis of quadriceps muscle of aged mice treated with 1-methyl-D-tryptophan (Table 1, TOPPGENE enrichment)
Type: in vivo
Description: Female mice 22 months of age were obtained from the National Institute on Aging and treated with saline (vehicle) or 1-methyl-D-tryptophan (1-MT, Sigma, 452483, lot#MKBZ1441V) at a low dose (10 mg/kg BW) or at a high dose (100 mg/kg BW). Mice were treated daily for 4 weeks. Treatments were administered i.p. with an injection volume of 0.2 ml following IACUC approved procedures. Mice were euthanized by CO2 overdose and muscles harvested for analysis. One quadriceps muscle was snap frozen for proteomics and the other quadriceps muscle fixed in buffered formalin for paraffin embedding and trichrome staining. The tibialis anterior was placed in PBS for amplex red assay.
The IDO inhibitor, 1-methyl-D-tryptophan, blocks kynurenine production and reduces levels of ROS in muscle.

With `Cn1cc(C[C@@H](N)C(=O)O)c2ccccc21` [1MT] the “1MT vs Control: E3 ubiquitin-protein ligase UBR4” value (A2AN08, GN = Ubr4) was 0.5, the “1MT vs Control: Ryanodine receptor 1” value (E9PZQ0, GN = Ryr1) was 0.6614 and the “1MT vs Control: Hexokinase-2” value (O08528, GN = Hk2) was 0.3158. For the same compound, the “1MT vs Control: Peroxiredoxin-6” value (O08709, GN = Prdx6) was 0.7083, the “1MT vs Control: Dihydrolipoyl dehydrogenase, mitochondrial” value (O08749, GN = Dld) was 0.8444 and the “1MT vs Control: Proteasome subunit beta type-1” value (O09061, GN = Psmb1) was 0.5556. For the same compound, the “1MT vs Control: Calsequestrin-1” value (O09165, GN = Casq1) was 0.9036, the “1MT vs Control: Branched-chain-amino-acid aminotransferase, mitochondrial” value (O35855, GN = Bcat2) was 0.5 and the “1MT vs Control: Polymerase I and transcript release factor” value (O54724, GN = Ptrf) was 0.9. The “1MT vs Control: Protein NipSnap homolog 2” value (O55126, GN = Gbas) was 0.5294, the “1MT vs Control: Phosphoglycerate mutase 2” value (O70250, GN = Pgam2) was 0.8457 and the “1MT vs Control: Voltage-dependent calcium channel gamma-1 subunit” value (O70578, GN = Cacng1) was 0.75. The “1MT vs Control: Reticulon-2” value (O70622, GN = Rtn2) was 0.3, the “1MT vs Control: Alpha-actinin-3” value (O88990, GN = Actn3) was 0.8638 and the “1MT vs Control: Complement C3” value (P01027, GN = C3) was 0.5294. For the same compound, the “1MT vs Control: Hemoglobin subunit alpha” value (P01942, GN = Hba) was 0.5714, the “1MT vs Control: Hemoglobin subunit beta-1” value (P02088, GN = Hbb-b1) was 0.688 and the “1MT vs Control: Myoglobin” value (P04247, GN = Mb) was 0.381. For the same compound, the “1MT vs Control: Aspartate aminotransferase, cytoplasmic” value (P05201, GN = Got1) was 0.8115, the “1MT vs Control: Aspartate aminotransferase, mitochondrial” value (P05202, GN = Got2) was 0.6944 and the “1MT vs Control: Myosin light chain 1/3, skeletal muscle isoform” value (P05977, GN = Myl1) was 0.7007. The “1MT vs Control: Glucose-6-phosphate isomerase” value (P06745, GN = Gpi) was 0.8424, the “1MT vs Control: Serum albumin” value (P07724, GN = Alb) was 0.8778 and the “1MT vs Control: Serine protease inhibitor A3K” value (P07759, GN = Serpina3k) was 0.5238. For the same compound, the “1MT vs Control: Malate dehydrogenase, mitochondrial” value (P08249, GN = Mdh2) was 0.915, the “1MT vs Control: Superoxide dismutase [Mn], mitochondrial” value (P09671, GN = Sod2) was 0.45 and the “1MT vs Control: Eukaryotic initiation factor 4A-II” value (P10630, GN = Eif4a2) was 0.6. For the same compound, the “1MT vs Control: Thioredoxin” value (P10639, GN = Txn) was 0.6154, the “1MT vs Control: Fatty acid-binding protein, heart” value (P11404, GN = Fabp3) was 0.6667 and the “1MT vs Control: Calcium/calmodulin-dependent protein kinase type II subunit alpha” value (P11798, GN = Camk2a) was 0.4444. The “1MT vs Control: cAMP-dependent protein kinase type II-alpha regulatory subunit” value (P12367, GN = Prkar2a) was 0.8333, the “1MT vs Control: Malate dehydrogenase, cytoplasmic” value (P14152, GN = Mdh1) was 0.7895 and the “1MT vs Control: Heat shock protein beta-1” value (P14602, GN = Hspb1) was 0.5385. For the same compound, the “1MT vs Control: Annexin A6” value (P14824, GN = Anxa6) was 0.7045, the “1MT vs Control: Selenium-binding protein 1” value (P17563, GN = Selenbp1) was 0.625 and the “1MT vs Control: Cathepsin D” value (P18242, GN = Ctsd) was 0.8. The “1MT vs Control: Glutathione S-transferase P 1” value (P19157, GN = Gstp1) was 0.7436, the “1MT vs Control: Thioredoxin-dependent peroxide reductase, mitochondrial” value (P20108, GN = Prdx3) was 0.6875 and the “1MT vs Control: Leukotriene A-4 hydrolase” value (P24527, GN = Lta4h) was 0.6667. For the same compound, the “1MT vs Control: Retinal dehydrogenase 1” value (P24549, GN = Aldh1a1) was 0.375, the “1MT vs Control: Glutamate dehydrogenase 1, mitochondrial” value (P26443, GN = Glud1) was 0.75 and the “1MT vs Control: 26S proteasome non-ATPase regulatory subunit 7” value (P26516, GN = Psmd7) was 0.8333. The “1MT vs Control: Adenylosuccinate synthetase isozyme 1” value (P28650, GN = Adssl1) was 0.8583, the “1MT vs Control: Parvalbumin alpha” value (P32848, GN = Pvalb) was 0.7209 and the “1MT vs Control: Pyruvate dehydrogenase E1 component subunit alpha, somatic form, mitochondrial” value (P35486, GN = Pdha1) was 0.5714. The “1MT vs Control: Peroxiredoxin-1” value (P35700, GN = Prdx1) was 0.9138, the “1MT vs Control: Stress-70 protein, mitochondrial” value (P38647, GN = Hspa9) was 0.4 and the “1MT vs Control: Enoyl-CoA delta isomerase 1, mitochondrial” value (P42125, GN = Eci1) was 0.3333. For the same compound, the “1MT vs Control: Medium-chain specific acyl-CoA dehydrogenase, mitochondrial” value (P45952, GN = Acadm) was 0.75, the “1MT vs Control: Carnitine O-acetyltransferase” value (P47934, GN = Crat) was 0.3913 and the “1MT vs Control: ADP/ATP translocase 1” value (P48962, GN = Slc25a4) was 0.4561. For the same compound, the “1MT vs Control: Long-chain specific acyl-CoA dehydrogenase, mitochondrial” value (P51174, GN = Acadl) was 0.3269, the “1MT vs Control: Isocitrate dehydrogenase [NADP], mitochondrial” value (P54071, GN = Idh2) was 0.3684 and the “1MT vs Control: Adenylosuccinate lyase” value (P54822, GN = Adsl) was 0.5172. The “1MT vs Control: Adenosine kinase” value (P55264, GN = Adk) was 0.4545, the “1MT vs Control: ATP synthase subunit beta, mitochondrial” value (P56480, GN = Atp5b) was 0.6321 and the “1MT vs Control: Elongation factor 1-delta” value (P57776, GN = Eef1d) was 0.8. The “1MT vs Control: 14-3-3 protein gamma” value (P61982, GN = Ywhag) was 0.5417, the “1MT vs Control: Serine/threonine-protein phosphatase PP1-beta catalytic subunit” value (P62141, GN = Ppp1cb) was 0.2857 and the “1MT vs Control: Cytochrome c, somatic” value (P62897, GN = Cycs) was 0.7778. The “1MT vs Control: Nuclease-sensitive element-binding protein 1” value (P62960, GN = Ybx1) was 0.6.
